From patent US8546579B2, “Bicycloheteroaryl compounds as P2X7 modulators and uses thereof” (Evotec (US) Inc., priority 2006, dated 2013)

Target: T1, P2X7 receptor (Homo sapiens, UniProt Q99572)
T1 construct: host or cells: THP-1 cells differentiated with LPS and IFN-γ
T1 sequence (Q99572 1-595): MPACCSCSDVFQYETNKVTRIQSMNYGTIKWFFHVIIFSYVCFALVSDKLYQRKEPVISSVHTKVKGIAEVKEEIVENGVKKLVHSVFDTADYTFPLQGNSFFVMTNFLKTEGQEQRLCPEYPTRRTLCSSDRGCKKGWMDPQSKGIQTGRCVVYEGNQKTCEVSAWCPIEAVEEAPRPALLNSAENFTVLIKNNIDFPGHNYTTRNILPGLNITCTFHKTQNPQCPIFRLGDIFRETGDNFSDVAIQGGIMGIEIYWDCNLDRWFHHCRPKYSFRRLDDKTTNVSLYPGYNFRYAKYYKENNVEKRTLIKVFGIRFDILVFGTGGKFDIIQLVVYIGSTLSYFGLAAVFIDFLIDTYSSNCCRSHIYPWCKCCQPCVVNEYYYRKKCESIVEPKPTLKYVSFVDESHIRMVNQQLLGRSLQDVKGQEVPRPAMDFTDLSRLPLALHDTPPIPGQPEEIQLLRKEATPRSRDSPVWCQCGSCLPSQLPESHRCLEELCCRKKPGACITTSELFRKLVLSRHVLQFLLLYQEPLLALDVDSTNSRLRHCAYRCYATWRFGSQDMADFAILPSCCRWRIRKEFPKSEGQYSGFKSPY
Assay: IL-1β release assay in differentiated THP-1 cells stimulated with BzATP (Example 9)
Assay type: cell-based
Set-up: inhibition: dose or concentration left out as unconfirmed
Conditions: 0.1 μM compound; differentiated THP-1 cells, BzATP 250 uM; "*" class symbols; read-out: IL-1β % Inhib. ("*" symbols: at 0.1 μM)
Procedure, shortened: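 IC50 derived by four-parameter logistic fit of percent inhibition of IL-1β release, measured by ELISA after 45 min stimulation with 250 uM BzATP. Cells: THP-1 differentiated 16 h with 100 ng/mL LPS plus IFN-γ, LPS-primed 2 h, compound added 30 min beforehand.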

inhibition at 0.1 µM	Compound
0 to 25%	Cc1cccc(C(=O)Nc2cccc3c(=O)n(Cc4ccc(OC(F)(F)F)cc4)ccc23)c1Cl [Compound 1607]

Same assay, conditions: 0.1 μM compound; differentiated THP-1 cells, BzATP 250 uM; symbols * to ****; read-out: IL-1β % Inhib. (asterisk symbols: at 0.1 μM)

inhibition at 0.1 µM	Compound
26 to 50%	CC(C(=O)Nc1cccc2c(=O)n(Cc3cccnc3)ccc12)c1ccccc1 (centres unmarked) [Compound 1347]
0 to 25%	COCCn1ccc2c(NC(=O)Cc3cc(OC)ccc3OC)cccc2c1=O [Compound 1313]

Same assay, conditions: 0.3 μM compound; differentiated THP-1 cells, BzATP 250 uM; "+" class symbols; read-out: IL-1β % Inhib. @ 0.3 μM

inhibition at 0.3 µM	Compound
51 to 75%	CC(c1ccccn1)n1ccc2c(NC(=O)Cc3ccc(C(F)(F)F)cc3)cccc2c1=O (centres unmarked) [Compound 1634]
26 to 50%	O=C(Cc1ccc(Cl)c(C(F)(F)F)c1)Nc1cccc2c(=O)n(Cc3ccc(C(F)(F)F)nc3)ccc12 [Compound 1624, 2-(4-Chloro-3-trifluoromethyl-phenyl)-N-[1-oxo-2-(6-trifluoromethyl-pyridin-3-ylmethyl)-1,2-dihydro-isoquinolin-5-yl]-acetamide]

Same assay, conditions: 0.3 μM compound; differentiated THP-1 cells, BzATP 250 uM; '+' class symbols; read-out: IL-1β % Inhib. @ 0.3 μM

inhibition at 0.3 µM	Compound
0 to 25%	CN(C)CCn1ccc2c(NC(=O)c3ccc(C(C)(C)C)cc3)cccc2c1=O [Compound 1147]
0 to 25%	COCCn1ccc2c(NC(=O)Cc3c(C)cc(C)cc3C)cccc2c1=O [Compound 1065]
0 to 25%	Cc1cc(C)c(CC(=O)Nc2cccc3c(=O)n(CC(C)(C)C)ccc23)c(C)c1 [Compound 1050]
0 to 25%	Cc1ccc(Cl)c(C(=O)Nc2cccc3c(=O)n(CCN(C)C)ccc23)c1 [Compound 1179]
0 to 25%	O=C(CCCc1ccccc1)Nc1cccc2c(=O)n(CC3CCOCC3)ccc12 [Compound 1108]
0 to 25%	CN(C)CCn1ccc2c(NC(=O)c3ccccc3Cl)cccc2c1=O [Compound 1137]
0 to 25%	Cc1cccc(CC(=O)Nc2cccc3c(=O)n(CC4CCOCC4)ccc23)c1 [Compound 1104]
0 to 25%	O=C(Nc1cccc2c(=O)n(CC3CCOCC3)ccc12)c1cc(Cl)ccc1Cl [Compound 1084]
0 to 25%	Cc1ccc(Cl)cc1C(=O)Nc1cccc2c(=O)n(CC3CCOCC3)ccc12 [Compound 1129]
0 to 25%	Cc1ccccc1CC(=O)Nc1cccc2c(=O)n(CC3CCOCC3)ccc12 [Compound 1101]
0 to 25%	O=C(Nc1cccc2c(=O)n(CCN3CCOCC3)ccc12)c1ccccc1Cl [Compound 1188]
0 to 25%	CN(C)CCn1ccc2c(NC(=O)Cc3csc4ccccc34)cccc2c1=O [Compound 1171]
0 to 25%	Cc1cccc(C(=O)Nc2cccc3c(=O)n(CC4CCOCC4)ccc23)c1C [Compound 1086]
0 to 25%	CN(C)CCn1ccc2c(NC(=O)CC3CCN(C(=O)OC(C)(C)C)CC3)cccc2c1=O [Compound 1010]
0 to 25%	CN(C)CCn1ccc2c(NC(=O)Cc3ccc4c(c3)OCO4)cccc2c1=O [Compound 1163]
0 to 25%	Cc1cc(C(=O)Nc2cccc3c(=O)n(CC4CCOCC4)ccc23)ccc1Cl [Compound 1033]

Same assay, conditions: 0.3 μM compound; differentiated THP-1 cells, BzATP 250 uM; symbols + to ++++; read-out: IL-1β % Inhib. @ 0.3 μM

inhibition at 0.3 µM	Compound
0 to 25%	O=C(Nc1cccc2c(=O)n(CCN3CCOCC3)ccc12)c1ccc2c(c1)OCCCO2 [Compound 1225]
0 to 25%	Cc1ccc(Cl)c(C(=O)Nc2cccc3c(=O)n(CC(C)(C)C)ccc23)c1 [Compound 1282]
≥ 76%	CC(=O)OCCn1ccc2c(NC(=O)CC3CCCCCC3)cccc2c1=O [Compound 1375]
0 to 25%	COCCn1ccc2c(NC(=O)[C@H]3C[C@@H]4CC[C@H]3C4)cccc2c1=O [Compound 1332]
0 to 25%	COc1ccc(CC(=O)Nc2cccc3c(=O)n(Cc4cccnc4)ccc23)cc1OC [Compound 1354]
0 to 25%	CC(C)(C)Cn1ccc2c(NC(=O)c3cccc4c3OCCO4)cccc2c1=O [Compound 1272]
26 to 50%	CC(C)(C)Cn1ccc2c(NC(=O)Cc3ccc4c(c3)OCO4)cccc2c1=O [Compound 1265]
0 to 25%	COCCn1ccc2c(NC(=O)c3cccc(Cl)c3C)cccc2c1=O [Compound 1330]
0 to 25%	CC(C)(C)Cn1ccc2c(NC(=O)CCc3cccc(Cl)c3)cccc2c1=O [Compound 1287]
0 to 25%	COCCn1ccc2c(NC(=O)Cc3csc4ccccc34)cccc2c1=O [Compound 1329]
0 to 25%	COCCn1ccc2c(NC(=O)Cc3ccc(OC)cc3OC)cccc2c1=O [Compound 1333]
0 to 25%	O=C(Nc1cccc2c(=O)n(CCN3CCOCC3)ccc12)[C@@]12C[C@@H]3C[C@@H](C[C@@H]1C3)C2 [Compound 1223]
0 to 25%	CCOc1ccccc1CC(=O)Nc1cccc2c(=O)n(C)ccc12 [Compound 1307]
0 to 25%	CC(C)(C)Cn1ccc2c(NC(=O)CCCc3ccccc3)cccc2c1=O [Compound 1263]

Same assay, conditions: THP-1; read-out: IL-1β % Inhib.

inhibition	Compound
26 to 50%	CCOc1ccccc1CC(=O)Nc1cccc2c(=O)n(CCCN3CCCC3=O)ccc12 [Compound 1538]
0 to 25%	O=C(Nc1cccc2c(=O)n(Cc3ccc(OC(F)(F)F)cc3)ccc12)[C@@]12C[C@@H]3C[C@@H](C[C@@H]1C3)C2 [Compound 1594]
0 to 25%	CC(C)(C)Cn1ccc2c(NC(=O)c3ccc(C(C)(C)C)cc3)cccc2c1=O [Compound 1416]
0 to 25%	CCOc1cccc(C(=O)Nc2cccc3c(=O)n(Cc4ccc(OC(F)(F)F)cc4)ccc23)c1 [Compound 1556]
51 to 75%	Cc1c(Cl)cccc1C(=O)Nc1cccc2c(=O)n(CCCN3CCCC3=O)ccc12 [Compound 1534]
26 to 50%	CC(C)(C)Cn1ccc2c(NC(=O)CCc3ccc(Cl)cc3)cccc2c1=O [Compound 1417]
0 to 25%	COc1ccc(CC(=O)Nc2cccc3c(=O)n(CC4CCN(C)CC4)ccc23)c(OC)c1 [Compound 1484]
26 to 50%	COc1cccc(CCC(=O)Nc2cccc3c(=O)n(CCN(C)C)ccc23)c1 [Compound 1400]
0 to 25%	O=C(Nc1cccc2c(=O)n(Cc3ccc(OC(F)(F)F)cc3)ccc12)c1cc(Cl)ccc1Cl [Compound 1561]
0 to 25%	CCOc1cccc(C(=O)Nc2cccc3c(=O)n(Cc4cccnc4)ccc23)c1 [Compound 1407]
0 to 25%	O=C(Nc1cccc2c(=O)n(Cc3cccnc3)ccc12)c1cc(Cl)ccc1Cl [Compound 1442]
0 to 25%	Cc1ccccc1CCC(=O)Nc1cccc2c(=O)n(CCN(C)C)ccc12 [Compound 1399]
0 to 25%	O=C(Nc1cccc2c(=O)n(Cc3cccnc3)ccc12)c1cc(Cl)cc(Cl)c1 [Compound 1443]
0 to 25%	COc1ccc(C(=O)Nc2cccc3c(=O)n(Cc4ccc(OC(F)(F)F)cc4)ccc23)cc1Cl [Compound 1555]
0 to 25%	COCCn1ccc2c(NC(=O)c3cc(C)ccc3Cl)cccc2c1=O [Compound 1440]
0 to 25%	CCOc1ccc(C(=O)Nc2cccc3c(=O)n(CCOC)ccc23)cc1 [Compound 1429]
0 to 25%	Cc1cc(C(=O)Nc2cccc3c(=O)n(CCCN4CCCC4=O)ccc23)ccc1F [Compound 1536]
0 to 25%	COc1ccc(CC(=O)Nc2cccc3c(=O)n(CC4CCN(C)CC4)ccc23)cc1 [Compound 1474]
0 to 25%	O=C(Nc1cccc2c(=O)n(Cc3ccc(OC(F)(F)F)cc3)ccc12)c1ccc2c(c1)OCCCO2 [Compound 1596]

Same assay, conditions: THP-1 cells, BzATP-stimulated IL-1β release, four parameter logistic fit

IC50	Compound
262 nM	CC(c1ccccn1)n1ccc2c(NC(=O)Cc3ccc(C(F)(F)F)cc3)cccc2c1=O (centres unmarked) [Compound 1634]
86.7 nM	CC(=O)OCCn1ccc2c(NC(=O)CC3CCCCCC3)cccc2c1=O [Compound 1375]
> 1000 nM	CN(C)CCn1ccc2c(NC(=O)c3ccc(S(C)(=O)=O)cc3)cccc2c1=O [Compound 1008]
365 nM	O=C(Cc1ccc(Cl)c(C(F)(F)F)c1)Nc1cccc2c(=O)n(Cc3ccc(C(F)(F)F)nc3)ccc12 [Compound 1624, 2-(4-Chloro-3-trifluoromethyl-phenyl)-N-[1-oxo-2-(6-trifluoromethyl-pyridin-3-ylmethyl)-1,2-dihydro-isoquinolin-5-yl]-acetamide]
> 1000 nM	CN(C)CCn1ccc2c(NC(=O)CC3CCN(C(=O)OC(C)(C)C)CC3)cccc2c1=O [Compound 1010]
